Experiment [1] has as its system AMPK. To be noted: cited from earlier work.
The test system of experiment [2] is AMPK. The experiment in a line: In vitro phosphorylation assay of purified Flag-mCRY1 by purified AMPK. The experiment is classed as biochemical. To be noted: 300 μM AMP; 30 minutes; 32P-ATP. As for the experimental part:
Flag-tagged mCRY1 purified from AD293 cells was incubated for 30 minutes with #^32P-ATP in the absence or presence of AMP kinase and 300 μM AMP as indicated. Phosphorylation of mCRY1 was detected by autoradiography; total mCRY1 levels were determined by immunoblot for the Flag epitope.
In vitro Phosphorylation Assay—Flag-mCRY1 was purified from transfected AD293 cells and combined with ^32P-ATP and purified AMPK (from Upstate Biotechnology) in the presence or absence of 300 uM AMP for 30 minutes at room temperature. The reaction mixture was separated by SDS-PAGE and transferred to nitrocellulose. Following radioactive visualization by phosphoimager, the nitrocellulose was immunoblotted for the Flag tag.

The subject of experiment [3] is reverba and dbp expression. The experiment in a line: Quantitative PCR of circadian transcripts in serum-stimulated mouse embryonic fibroblasts. The experiment is classed as cell-based. To be noted: 25 mM glucose supplemented with 1 mM AICAR. The procedure: (A) Unsynchronized paired wild type (AMPK^+/+) or ampkα1^−/−; ampkα2^−/− (AMPK−/−) mouse embryonic fibroblasts were stimulated by 2 hour exposure to 50% horse serum followed by transfer to media containing 25 mM glucose, 0.5 mM glucose or 25 mM glucose supplemented with 1 mM AICAR. Quantitative PCR analysis was performed using cDNA samples collected at the indicated times following stimulation. Data represent the mean of two independent experiments, each analyzed in triplicate. (B) Fibroblasts stably expressing Bmall-luciferase were cultured in media containing the indicated amounts of glucose with or without 2 mM AICAR. Typical results of continuous monitoring of luciferase activity are shown. (C and D) Quantitation of the circadian period (C) and amplitude (D) of Bmall-driven luciferase activity from experiments performed as described in (B). Data in (C) and (D) represent the mean±standard deviation for four samples per condition. […]
FIG. 10A-D show disruption of AMPK alters circadian rhythms in MEFs. […] Quantitative PCR analysis was performed using cDNA samples prepared from lysates collected at the indicated times following stimulation. Data represent the mean±standard deviation of two or three independent experiments each analyzed in triplicate. […]

Experiment [4] has as its system Fas and Por expression in liver. The experiment in a line: Liver gene expression (quantitative PCR) in wildtype and Cry1-/-;Cry2-/- mice injected with AICAR. The experiment is classed as in vivo, mouse. The procedure:
Wildtype (WT) or Cry1^−/−;Cry2^−/− (CRY^−/−) mice were injected with either saline (black bars) or 500 mg AICAR per kg of bodyweight (red bars) at 6:00 pm. cDNA was prepared from livers collected four hours later at 10:00 pm and gene expression was analyzed by quantitative PCR using Sybr GreenER chemistry. […] Data represent the mean±s.e.m. for 3-5 mice per condition.
Gene Expression—RNA was extracted from livers or cultured fibroblasts with Trizol or using the Qiagen RNeasy purification system. cDNA was prepared using the SuperscriptII reverse transcriptase (Invitrogen) and analyzed for gene expression using quantitative real-time PCR with either SYBR green (Invitrogen) or TaqMan (Applied Biosystems) chemistry. Primer sequences are available upon request.
Mice—LKB1^fl/fl mice were a gift from Dr. Ronald De Pinho, Cry1^−/−;Cry2^−/− mice were a gift from Dr. Aziz Sancar. Adenovirus expressing Cre recombinase was from the University of Iowa Transgenic Core facility. All animal care and treatments were in accordance with the Salk Institute guidelines for the care and use of animals.
Furthermore, the effect on metabolic physiology of genetic disruption of both Cry1 and Cry2 in mice is examined.

Experiment [5] deals with mCRY1. The experiment in a line: Levels of exogenously expressed Flag-mCRY1 in HeLa cells expressing WT or KD LKB1 (immunoblot). The experiment is classed as cell-based, mouse. To be noted: HeLa cells with wild type (WT) LKB1; 2 mM AICAR for 2 hours. An excerpt: (A) Sequence alignments showing evolutionary conservation of the regions surrounding S71 of mCRY1 in cryptochrome circadian transcriptional repressors (species names in red font) and blue light photoreceptors (species names in blue font). The highlighted numbers above the sequences indicate amino acid preferences at those positions relative to the target serine for phosphorylation by AMP kinase: red indicates a preference for acidic residues (K/R) and green for hydrophobic residues (L/I/V/F). (B) Top: sequence alignment of the phospho-peptides against which antibodies to mCRY1-pS71 and mACC1-pS79 were raised. Bottom: Both anti-mCRY1-pS71 and anti-ACC1-pS79 antibodies recognize WT but not S71A Flag-mCRY1 immunoprecipitated from AD293 cells. (C) anti-mCRY1-p571 was used to detect phosphorylation of Ser71 in Flag-CRY1 immunoprecipitated from AD293 cells transiently expressing wild type CRY1 (WT) or CRY1S71A (S71A) in the absence or presence of activated alleles of AMPKα1 (CAα1) or AMPKα2 (CAα2). Transiently expressed myc-CAα1 and myc-CAα2 were immunostained with polyclonal rabbit antibodies raised against the myc epitope tags and anti-rabbit AF488 (green). Nuclei were counterstained with DAPI (blue). […] CRY1 was detected by immunoprecipitation and immunoblotting for the Flag epitope in (D-G). […]
Background: A western blot detects proteins with antibodies after separation by electrophoresis.

Experiment [6] relates to CRY1. The experiment in a line: Flag-CRY1 degradation/stability in AMPK+/+ and AMPK-/- mouse embryonic fibroblasts (immunoprecipitation, immunoblot, cycloheximide time course). The experiment is classed as cell-based. The text has this: (A) Sequence alignments showing evolutionary conservation of the regions surrounding S71 of mCRY1 in cryptochrome circadian transcriptional repressors (species names in red font) and blue light photoreceptors (species names in blue font). The highlighted numbers above the sequences indicate amino acid preferences at those positions relative to the target serine for phosphorylation by AMP kinase: red indicates a preference for acidic residues (K/R) and green for hydrophobic residues (L/I/V/F). (B) Top: sequence alignment of the phospho-peptides against which antibodies to mCRY1-pS71 and mACC1-pS79 were raised. Bottom: Both anti-mCRY1-pS71 and anti-ACC1-pS79 antibodies recognize WT but not S71A Flag-mCRY1 immunoprecipitated from AD293 cells. (C) anti-mCRY1-p571 was used to detect phosphorylation of Ser71 in Flag-CRY1 immunoprecipitated from AD293 cells transiently expressing wild type CRY1 (WT) or CRY1S71A (S71A) in the absence or presence of activated alleles of AMPKα1 (CAα1) or AMPKα2 (CAα2). Transiently expressed myc-CAα1 and myc-CAα2 were immunostained with polyclonal rabbit antibodies raised against the myc epitope tags and anti-rabbit AF488 (green). Nuclei were counterstained with DAPI (blue). (D) HeLa cells transiently expressing Flag-CRY1 with wild type (WT) or kinase dead (KD) LKB1 were treated with vehicle (−) or 2 mM AICAR (+) for 2 hours. (E) AD293 cells transiently expressing the indicated alleles of Flag-mCRY1 were treated with media containing 25 mM or 0.5 mM glucose. (F) Paired wild type (AMPK+/+) and ampkα1^−/−;ampkα2^−/− (AMPK−/−) mouse embryonic fibroblasts stably expressing Flag-tagged wild type CRY1 (WT) or CRY1S71A/S280A (AA) were treated with vehicle (−) or 2 mM AICAR (+) for 2 hours. (G) MEFs described in (F) were treated with 100 μg/ml cycloheximide (CHX) for the indicated times. CRY1 was detected by immunoprecipitation and immunoblotting for the Flag epitope in (D-G). […]

Experiment [7] has as its system Bmall-luciferase. The experiment in a line: Real time bioluminescence monitoring of Bmall-luciferase circadian rhythms. The note with it: high glucose medium supplemented with 2 mM AICAR. The experiment is classed as cell-based, human. As for the experimental part: (A) Unsynchronized paired wild type (AMPK^+/+) or ampkα1^−/−; ampkα2^−/− (AMPK−/−) mouse embryonic fibroblasts were stimulated by 2 hour exposure to 50% horse serum followed by transfer to media containing 25 mM glucose, 0.5 mM glucose or 25 mM glucose supplemented with 1 mM AICAR. Quantitative PCR analysis was performed using cDNA samples collected at the indicated times following stimulation. Data represent the mean of two independent experiments, each analyzed in triplicate. (B) Fibroblasts stably expressing Bmall-luciferase were cultured in media containing the indicated amounts of glucose with or without 2 mM AICAR. Typical results of continuous monitoring of luciferase activity are shown. (C and D) Quantitation of the circadian period (C) and amplitude (D) of Bmall-driven luciferase activity from experiments performed as described in (B). Data in (C) and (D) represent the mean±standard deviation for four samples per condition. ANOVA analysis indicated a significant difference between categories. ** P<0.01 vs. samples cultured in 25 mM glucose in Scheffe's post-hoc analysis.
The Bmall promoter is repressed by REVERBa. […]
Real Time Bioluminescence Monitoring—The human osteosarcoma U2OS reporter cell line stably expressing a Bmall promoter driven luciferase has been described. […] Bioluminescence was continuously recorded by a LumiCycle apparatus from Actimetrics, Inc.

[8] abbreviates: WT or Cry1-/-;Cry2-/- mice, 500 mg AICAR per kg of bodyweight, livers collected four hours later.

As to `NC(=O)c1ncn([C@@H]2O[C@H](COP(=O)(O)O)[C@@H](O)[C@H]2O)c1N` [ZMP, 5-amino-4-imidazolecarboxamide ribotide], the AMPK activation entry in experiment [1] (AMP analog formed in the cell from AICAR) is on record as “has been shown to activate AMPK”. Further, in experiment [1] (also acts as an AMP mimic in the regulation of other enzymes), the “specificity as AMPK activator” value is “not a specific AMPK activator”.
Turning to `Nc1ncnc2c1ncn2[C@@H]1O[C@H](COP(=O)(O)O)[C@@H](O)[C@H]1O` [AMP], the “phosphorylation of mCRY1 by purified AMPK” value in experiment [2] was “strongly activated”.
`NC(=O)c1ncn([C@@H]2O[C@H](CO)[C@@H](O)[C@H]2O)c1N` [AICAR, 5-amino-4-imidazolecarboxamide riboside]: the “expression of reverba and dbp” value in experiment [3] (MEFs lacking AMPK (AMPK-/-)) was “neither glucose deprivation nor AICAR treatment affected”. Besides, the “amplitude of circadian reverba and dbp expression” value in experiment [3] (wild type fibroblasts) is reported as “mimicked the effects of glucose deprivation”. In experiment [4] (setting [8]), the “Fas (fatty acid synthase) expression in liver” value is “activated by AICAR regardless of Cry1 and Cry2 genotype”; the “Por (p450 oxidoreductase) expression in liver” value is on record as “AICAR-induced activation requires cryptochromes”. In addition, the “gene expression in the livers” value in experiment [4] (wildtype and cryptochrome-deficient mice injected with AICAR) is “cryptochromes are required for AICAR-induced activation of a subset of the genes”. The “levels of exogenously expressed mCRY1” value in experiment [5] is recorded as “reduction was enhanced”. Also, the “stability of wild type CRY1” value in experiment [6] (4-hour time course of cycloheximide treatment in the presence of AICAR) is reported as “reduced stability”. In addition, the “effect on WT or AA CRY1” value in experiment [6] (AMPK-/- MEFs (absence of functional AMPK), 2 mM AICAR for 2 hours) is listed as “no effect”. The “degradation of wild type (WT) Flag-CRY1” value in experiment [6] (wild type (AMPK+/+) MEFs, 2 mM AICAR for 2 hours) is on record as “acutely degraded”. In experiment [7], the “amplitude of Bmall-luciferase expression” value is reported as “decreased the amplitude”.

These data come from patent publication US20120134985A1, “METHODS FOR MODULATING METABOLIC AND CIRCADIAN RHYTHMS” (The Salk Institute for Biological Studies, priority 2009, published 2012).
